One assay has as its target BACE1 (Homo sapiens (Human), UniProt P56817). Nature of the assay: BACE1 Cell-Free Assay. It is filed as biochemical. The conditions noted are these: fluorescence polarization; 0.1 nM BACE1, 150 nM peptide substrate, pH 4.5, 3 hours at 37° C.; geometric mean. For orientation: Polarisation of emitted light reports the rotation of a fluorescent probe.
Assay [1] concerns H4 human neuroglioma cells over-expressing the wild-type human APP695. The experiment in a line: sAPPβ Whole-Cell Assay (in vitro sAPPb assay). The format is cell-based. The following applies: read-out: sAPPβ Whole-Cell Assay IC50. On the procedure:
Whole Cell Assay (In Vitro sAPPb Assay):
H4 human neuroglioma cells over-expressing the wild-type human APP695 are treated for 18 hours with compound in cell growth media having a final concentration 1% DMSO. sAPPβ levels are measured using TMB-ELISA with capture APP N-terminal antibody (Affinity BioReagents, OMA1-03132), wild-type sAPPβ specific reporter p192 (Elan), and tertiary anti rabbit-HRP (GE Healthcare).

A further assay concerns the target BACE2 (Homo sapiens (Human), UniProt Q9Y5Z0). Nature of the assay: BACE2 Cell-free Assay. It is filed as biochemical. The following applies: fluorescence polarization; 2.5 nM BACE2, 150 nM peptide substrate, pH 4.5, 3 hours at 37° C.; geometric mean. As to the method:
BACE2 Assay: This assay measures the inhibition of the BACE2 enzyme as it cleaves a non-native peptide. […] The substrate is Biotin-[…](Oregon green)-KK-OH. The BACE2 enzyme is available from Enzo Life Sciences (Cat #BML-SE550). Compounds are incubated in a 1⁄2 log dose response curve from a top concentration of 100 μM with BACE2 enzyme and the biotinylated fluorescent peptide in 384-well black plates (Thermo Scientific #4318). […] Plates are covered and incubated for 3 hours at 37° C. The reaction is stopped with the addition of 30 μL of 1.5 μM Streptavidin (Pierce, #21125). After a 10 minute incubation at room temperature, plates are read on a PerkinElmer Envision for fluorescent polarization (Ex485 nm/Em530 nm). The activity of the beta-secretase enzyme is detected by changes in the fluorescence polarization that occur when the substrate is cleaved by the enzyme.

Setting [2] is: H4 cells, 18 hours with compound, sAPPβ by TMB-ELISA, geometric mean.

Read-outs that look alike come from different tables or passages of the source.

BACE1, sequence (P56817 46-457): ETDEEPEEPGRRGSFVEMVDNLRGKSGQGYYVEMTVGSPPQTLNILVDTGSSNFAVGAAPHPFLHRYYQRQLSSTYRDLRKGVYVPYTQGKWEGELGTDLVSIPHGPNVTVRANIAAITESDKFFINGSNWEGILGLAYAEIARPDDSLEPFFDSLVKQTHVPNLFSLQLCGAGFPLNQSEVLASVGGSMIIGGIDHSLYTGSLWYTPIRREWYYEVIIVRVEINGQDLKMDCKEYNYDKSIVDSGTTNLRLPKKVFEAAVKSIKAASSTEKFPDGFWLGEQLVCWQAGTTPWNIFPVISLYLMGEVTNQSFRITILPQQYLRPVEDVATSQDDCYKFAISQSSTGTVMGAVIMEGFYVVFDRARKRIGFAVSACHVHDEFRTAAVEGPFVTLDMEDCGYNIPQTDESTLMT
BACE2, sequence (Q9Y5Z0 63-518): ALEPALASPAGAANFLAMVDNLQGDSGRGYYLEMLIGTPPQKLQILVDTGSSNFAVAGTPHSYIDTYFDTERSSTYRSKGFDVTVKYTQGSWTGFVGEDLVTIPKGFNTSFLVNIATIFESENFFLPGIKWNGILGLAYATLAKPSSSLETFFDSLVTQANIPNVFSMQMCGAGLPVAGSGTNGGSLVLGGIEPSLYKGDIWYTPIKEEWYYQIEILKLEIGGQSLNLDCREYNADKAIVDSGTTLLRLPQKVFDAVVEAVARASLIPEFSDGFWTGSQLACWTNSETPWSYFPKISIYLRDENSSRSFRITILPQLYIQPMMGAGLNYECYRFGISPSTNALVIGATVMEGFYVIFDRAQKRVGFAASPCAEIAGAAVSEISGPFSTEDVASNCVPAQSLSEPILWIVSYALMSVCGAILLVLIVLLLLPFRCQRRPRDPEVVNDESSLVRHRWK

Take `C[C@H]1SC(N)=N[C@@]2(c3ccc(F)cc3F)CO[C@@H](CF)C[C@@H]12` [Example 1, (4R,4aR,6R,8aS)-8a-(2,4-Difluorophenyl)-6-(fluoromethyl)-4-methyl-4,4a,5,6,8,8a-hexahydropyrano[3,4-d][1,3]thiazin-2-amine]: the IC50 against BACE1 came out at 805 nM; in assay [1] (setting [2]), 61.4 nM; at BACE2, 1560 nM.

`COC[C@H]1C[C@H]2[C@@H](C)SC(N)=N[C@@]2(c2ccc(F)cc2F)CO1` [Example 2, (4R,4aR,6R,8aS)-8a-(2,4-Difluorophenyl)-6-(methoxymethyl)-4-methyl-4,4a,5,6,8,8a-hexahydropyrano[3,4-d][1,3]thiazin-2-amine]: the IC50 was determined as 737 nM on BACE1, 31.9 nM in assay [1] (setting [2]) and 2310 nM on BACE2.

For `C[C@H]1C[C@H]2CSC(N)=N[C@@]2(c2ccc(F)cc2F)CO1` [Example 3, (4aR,6S,8aS)-8a-(2,4-Difluorophenyl)-6-methyl-4,4a,5,6,8,8a-hexahydropyrano[3,4-d][1,3]thiazin-2-amine], the IC50 in assay [1] (setting [2]) stood at 37.2 nM; against BACE2 it was 1140 nM.

With `NC1=N[C@@]2(c3ccc(F)cc3F)CO[C@@H](C(F)F)C[C@H]2CS1` [Example 4, (4aR,6R,8aS)-6-(Difluoromethyl)-8a-(2,4-difluorophenyl)-4,4a,5,6,8,8a-hexahydropyrano[3,4-d][1,3]thiazin-2-amine], on BACE2, 2140 nM corresponded to half-maximal inhibition (IC50).

Turning to `CCOC[C@H]1C[C@H]2[C@@H](C)SC(N)=N[C@@]2(c2ccc(F)cc2F)CO1` [Example 5, (4R,4aR,6R,8aS)-8a-(2,4-Difluorophenyl)-6-(ethoxymethyl)-4-methyl-4,4a,5,6,8,8a-hexahydropyrano[3,4-d][1,3]thiazin-2-amine], the IC50 against BACE1 came to 613 nM; in assay [1] (18 h) it was 39 nM; against BACE2 it was 274 nM.

Take `CC(C)OC[C@H]1C[C@H]2[C@@H](C)SC(N)=N[C@@]2(c2ccc(F)cc2F)CO1` [Example 6, (4R,4aR,6R,8aS)-8a-(2,4-Difluorophenyl)-4-methyl-6-[(propan-2-yloxy)methyl]-4,4a,5,6,8,8a-hexahydropyrano[3,4-d][1,3]thiazin-2-amine]: the IC50 at BACE1 turned out to be 718 nM; in assay [1] (setting [2]), 42.9 nM; against BACE2 it was 5080 nM.

On to `CC(C)C[C@H]1C[C@H]2CSC(N)=N[C@@]2(c2ccc(F)cc2F)CO1` [Example 7, (4aR,6S,8aS)-8a-(2,4-Difluorophenyl)-6-(2-methylpropyl)-4,4a,5,6,8,8a-hexahydropyrano[3,4-d][1,3]thiazin-2-amine], for which, in assay [1] (setting [2]), the IC50 turned out to be 20.6 nM.

With `COC[C@H]1C[C@H]2CSC(N)=N[C@@]2(c2ccc(F)cc2F)CO1` [Example 8, (4aR,6R,8aS)-8a-(2,4-Difluorophenyl)-6-(methoxymethyl)-4,4a,5,6,8,8a-hexahydropyrano[3,4-d][1,3]thiazin-2-amine], the IC50 in assay [1] (setting [2]) was 30 nM; at BACE2, 1630 nM.

What is called IC50 is the midpoint of a concentration-inhibition curve.

(Values after patent US9260455B2, “Alkyl-substituted hexahydropyrano[3,4-d][1,3]thiazin-2-amine compounds” (Pfizer Inc., priority 2012, dated 2016).)
